Results reported in patent publication US12568972B2, “Pyridazinol compounds and derivatives, preparation methods, herbicidal compositions and applications thereof” (Qingdao Kingagroot Chemical Compound Co., Ltd., priority 2018, dated 2026).
Where two headings read alike, the source gives them in different places.

Columns and labels:
Format in all cases: in vivo
weeds = experiment: Control effect and synergistic effect of the mixture of (i) and (ii), postemergence (Gowing method)
Text: Wherein, in the formula, X represented the fresh weight inhibition rate of the active ingredient A in a dosage of P, and Y represented the fresh weight inhibition rate of the active ingredient B in a dosage of Q. The statistic results are shown in Table 6.

Amaranthus retroflexus = experiment: Post-emergence test, weed control effect; details: after 3 weeks
In short: (§1)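 Weeds grown from seed in soil-filled pots in a greenhouse were sprayed at the 2-3 leaf stage, 2-3 weeks after sowing, with compound in acetone/Tween-80/water plus 80% vegetable oil methyl ester synergist at 1500 g/ha. Fresh-weight inhibition was scored on a 0-10 scale after 3 weeks.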

Veronica polita = experiment: Post-emergence test, weed control effect; details: after 3 weeks
In short: as §1

Chenopodiaceae = experiment: Post-emergence test, weed control effect; details: after 3 weeks
In short: as §1

Rorippa indica = experiment: Post-emergence test, weed control effect; details: after 3 weeks
In short: as §1

[1] = Abutilon theophrasti, 15 g a.i./ha, postemergence, 20 days after treatment
[2] = Abutilon theophrasti, 50 g a.i./ha, postemergence, 20 days after treatment

CS(=O)(=O)c1ccc(C(=O)C2C(=O)CCCC2=O)c(Cl)c1COCC(F)(F)F [Tembotrione]
pest or weed control at 15 g/ha (weeds; post-emergence, 480 h, Abutilon theophrasti, 15 g a.i./ha, postemergence, 20 days after treatment, read-out: Inhibitory effect of component (ii) when applied alone at same dose): 30%

CCn1ncc(C(=O)c2ccc(S(C)(=O)=O)c(OCCOC)c2C)c1OC(C)OC(=O)OC (centres unmarked) [Tolpyralate]
Inhibitory effect of component (ii) when applied alone at same dose (weeds; Abutilon theophrasti, 5 g a.i./ha, postemergence, 20 days after treatment): 50%

CCn1ncc(C(=O)c2ccc(S(C)(=O)=O)c(COCC(F)(F)F)c2Cl)c1OC(=O)c1cn(C)nc1C [Benzuofucaotong]
Inhibitory effect of component (ii) when applied alone at same dose (weeds; [1]): 40%

CNc1cnn(-c2cccc(C(F)(F)F)c2)c(=O)c1Cl [Norflurazon]
pest or weed control at 300 g/ha (weeds; post-emergence, 480 h, Abutilon theophrasti, 300 g a.i./ha, postemergence, 20 days after treatment, read-out: Inhibitory effect of component (ii) when applied alone at same dose): 50%

O=C(Nc1ccc(F)cc1)c1cccc(Oc2cccc(C(F)(F)F)c2)n1 [Picolinafen]
Inhibitory effect of component (ii) when applied alone at same dose (weeds; [2]): 30%

COC(=O)c1nc(-c2ccc(Cl)c(OC)c2F)cc(N)c1Cl [Halauxifen-methyl]
Inhibitory effect of component (ii) when applied alone at same dose (weeds; Abutilon theophrasti, 2 g a.i./ha, postemergence, 20 days after treatment): 40%

CS(=O)(=O)c1ccc(C(=O)C2C(=O)CCCC2=O)c(Cl)c1COCC1CCCO1 (centres unmarked) [Tefuryltrione]
Inhibitory effect of component (ii) when applied alone at same dose (weeds; [2]): 40%

O=C1C(Cl)C(CCl)CN1c1cccc(C(F)(F)F)c1 (centres unmarked) [Flurochloridone]
pest or weed control at 100 g/ha (weeds; post-emergence, 480 h, Galium aparine, 100 g a.i./ha, postemergence, 20 days after treatment, read-out: Inhibitory effect of component (ii) when applied alone at same dose): 40%

CS(=O)(=O)c1ccc(C(=O)C2C(=O)CCCC2=O)c(Cl)c1OCCC1OCCO1 [Lancotrione]
Inhibitory effect of component (ii) when applied alone at same dose (weeds; [2]): 40%

O=C(Nc1ccc(F)cc1F)c1cccnc1Oc1cccc(C(F)(F)F)c1 [Diflufenican]
pest or weed control at 100 g/ha (weeds; post-emergence, 480 h, Veronica polita, 100 g a.i./ha, postemergence, 20 days after treatment, read-out: Inhibitory effect of component (ii) when applied alone at same dose): 45%

Fluridone
Inhibitory effect of component (ii) when applied alone at same dose (weeds; Abutilon theophrasti, 100 g a.i./ha, postemergence, 20 days after treatment): 45%

Cc1cc(Cl)ccc1OCCCC(=O)O [MCPB]
Inhibitory effect of component (ii) when applied alone at same dose (weeds; Sisymbrium sophia, 200 g a.i./ha, postemergence, 20 days after treatment): 40%

Cc1cc(Cl)ccc1OC(C)C(=O)O (centres unmarked) [2-methyl 4-chlorophenoxypropionic acid]
Inhibitory effect of component (ii) when applied alone at same dose (weeds; Sisymbrium sophia, 100 g a.i./ha, postemergence, 20 days after treatment): 30%

CNC1=C(c2cccc(C(F)(F)F)c2)C(=O)C(c2ccccc2)O1 (centres unmarked) [Flurtamone]
pest or weed control at 100 g/ha (weeds; Galium aparine, post-emergence, 480 h, read-out: Inhibitory effect of component (ii) when applied alone at same dose): 35%

Cc1nn(C)c(O)c1C(=O)c1ccc(C(F)(F)F)cc1S(C)(=O)=O [Pyrasulfotole]
Inhibitory effect of component (ii) when applied alone at same dose (weeds; [1]): 50%

Cc1ncccc1-c1nnc(C(F)(F)F)cc1O [Compound 973]
weed control effect (activity level), Amaranthus retroflexus (Amaranthus retroflexus; Dose 3000 g/ha): 10
weed control effect (activity level), Veronica polita (Veronica polita; Dose 3000 g/ha): 10
weed control effect (activity level), Chenopodiaceae (Chenopodiaceae; Dose 3000 g/ha): 10
weed control effect (activity level), Rorippa indica (Rorippa indica; Dose 3000 g/ha): 10

Oc1cc(C(F)(F)F)nnc1-c1ccc(Cl)c(Cl)c1 [Compound 38]
weed control effect (activity level), Amaranthus retroflexus (Amaranthus retroflexus; dose 1000 g/ha): 10
weed control effect (activity level), Veronica polita (Veronica polita; dose 1000 g/ha): 10
weed control effect (activity level), Chenopodiaceae (Chenopodiaceae; dose 1000 g/ha): 10
weed control effect (activity level), Rorippa indica (Rorippa indica; dose 1000 g/ha): 10

Oc1cc(C(F)(F)F)nnc1-c1ccnn1Cc1ccccc1 [Compound 833]
weed control effect (activity level), Amaranthus retroflexus (Amaranthus retroflexus; Dose 3000 g/ha): 10
weed control effect (activity level), Veronica polita (Veronica polita; Dose 3000 g/ha): 10
weed control effect (activity level), Chenopodiaceae (Chenopodiaceae; Dose 3000 g/ha): 10
weed control effect (activity level), Rorippa indica (Rorippa indica; Dose 3000 g/ha): 10

CN(C)c1cc(-c2nnc(C(F)(F)F)cc2O)n(C)n1 [Compound 787]
weed control effect (activity level), Amaranthus retroflexus (Amaranthus retroflexus; Dose 3000 g/ha): 10
weed control effect (activity level), Veronica polita (Veronica polita; Dose 3000 g/ha): 10
weed control effect (activity level), Chenopodiaceae (Chenopodiaceae; Dose 3000 g/ha): 10
weed control effect (activity level), Rorippa indica (Rorippa indica; Dose 3000 g/ha): 10

CC(=O)CC(=O)Oc1cc(C(F)(F)F)nnc1-c1ccc(F)cc1 [Compound 1-76]
weed control effect, Amaranthus retroflexus (activity level) (Amaranthus retroflexus; Dose 3000 g/ha): 10
weed control effect, Veronica polita (activity level) (Veronica polita; Dose 3000 g/ha): 10
weed control effect, Chenopodiaceae (activity level) (Chenopodiaceae; Dose 3000 g/ha): 10
weed control effect, Rorippa indica (activity level) (Rorippa indica; Dose 3000 g/ha): 10

Cc1nn(C)c(-c2nnc(C(F)(F)F)cc2O)c1F [Compound 803]
weed control effect (activity level), Amaranthus retroflexus (Amaranthus retroflexus; Dose 3000 g/ha): 10
weed control effect (activity level), Veronica polita (Veronica polita; Dose 3000 g/ha): 10
weed control effect (activity level), Chenopodiaceae (Chenopodiaceae; Dose 3000 g/ha): 10
weed control effect (activity level), Rorippa indica (Rorippa indica; Dose 3000 g/ha): 10

O=C(Oc1cc(C(F)(F)F)nnc1-c1ccc(F)c(F)c1)c1ccc(Cl)nc1 [Compound 1-110]
weed control effect, Amaranthus retroflexus (activity level) (Amaranthus retroflexus; Dose 3000 g/ha): 10
weed control effect, Veronica polita (activity level) (Veronica polita; Dose 3000 g/ha): 10
weed control effect, Chenopodiaceae (activity level) (Chenopodiaceae; Dose 3000 g/ha): 10
weed control effect, Rorippa indica (activity level) (Rorippa indica; Dose 3000 g/ha): 10

O=C(COCc1ccccc1)Oc1cc(C(F)(F)F)nnc1-c1ccc(F)c(F)c1 [Compound 1-100]
weed control effect, Amaranthus retroflexus (activity level) (Amaranthus retroflexus; Dose 3000 g/ha): 10
weed control effect, Veronica polita (activity level) (Veronica polita; Dose 3000 g/ha): 10
weed control effect, Chenopodiaceae (activity level) (Chenopodiaceae; Dose 3000 g/ha): 10
weed control effect, Rorippa indica (activity level) (Rorippa indica; Dose 3000 g/ha): 10

Oc1cc(C(F)(F)F)nnc1-c1cncc(C(F)(F)F)c1 [Compound 977]
weed control effect (activity level), Amaranthus retroflexus (Amaranthus retroflexus; Dose 3000 g/ha): 10
weed control effect (activity level), Veronica polita (Veronica polita; Dose 3000 g/ha): 10
weed control effect (activity level), Chenopodiaceae (Chenopodiaceae; Dose 3000 g/ha): 10
weed control effect (activity level), Rorippa indica (Rorippa indica; Dose 3000 g/ha): 10

CCCCCC/C(C)=N\Oc1cc(C(F)(F)F)nnc1-c1ccc(Cl)cc1Cl [Compound 1-176]
weed control effect, Amaranthus retroflexus (activity level) (Amaranthus retroflexus; Dose 3000 g/ha): 10
weed control effect, Veronica polita (activity level) (Veronica polita; Dose 3000 g/ha): 10
weed control effect, Chenopodiaceae (activity level) (Chenopodiaceae; Dose 3000 g/ha): 10
weed control effect, Rorippa indica (activity level) (Rorippa indica; Dose 3000 g/ha): 10

Oc1cc(C(F)(F)F)nnc1-c1cnc(Cl)cc1Cl [Compound 995]
weed control effect (activity level), Amaranthus retroflexus (Amaranthus retroflexus; Dose 3000 g/ha): 10
weed control effect (activity level), Veronica polita (Veronica polita; Dose 3000 g/ha): 10
weed control effect (activity level), Chenopodiaceae (Chenopodiaceae; Dose 3000 g/ha): 10
weed control effect (activity level), Rorippa indica (Rorippa indica; Dose 3000 g/ha): 10

Oc1cc(C(F)(F)F)nnc1-c1c(Cl)cccc1Cl [Compound 41]
weed control effect (activity level), Amaranthus retroflexus (Amaranthus retroflexus; dose 1000 g/ha): 10
weed control effect (activity level), Veronica polita (Veronica polita; dose 1000 g/ha): 10
weed control effect (activity level), Chenopodiaceae (Chenopodiaceae; dose 1000 g/ha): 10
weed control effect (activity level), Rorippa indica (Rorippa indica; dose 1000 g/ha): 10

Oc1cc(C(F)(F)F)nnc1-c1ccc2cccnc2c1 [Compound 723]
weed control effect (activity level), Amaranthus retroflexus (Amaranthus retroflexus; Dose 3000 g/ha): 10
weed control effect (activity level), Veronica polita (Veronica polita; Dose 3000 g/ha): 10
weed control effect (activity level), Chenopodiaceae (Chenopodiaceae; Dose 3000 g/ha): 10
weed control effect (activity level), Rorippa indica (Rorippa indica; Dose 3000 g/ha): 10

O=C(Oc1cc(C(F)(F)F)nnc1-c1ccc(C(F)(F)F)cc1)c1cccc2c1OCO2 [Compound 1-118]
weed control effect, Amaranthus retroflexus (activity level) (Amaranthus retroflexus; Dose 3000 g/ha): 10
weed control effect, Veronica polita (activity level) (Veronica polita; Dose 3000 g/ha): 10
weed control effect, Chenopodiaceae (activity level) (Chenopodiaceae; Dose 3000 g/ha): 10
weed control effect, Rorippa indica (activity level) (Rorippa indica; Dose 3000 g/ha): 10

CCc1cccc(-c2nnc(C(F)(F)F)cc2OS(=O)(=O)CS(C)(=O)=O)c1 [Compound 1-123]
weed control effect, Amaranthus retroflexus (activity level) (Amaranthus retroflexus; Dose 3000 g/ha): 10
weed control effect, Veronica polita (activity level) (Veronica polita; Dose 3000 g/ha): 10
weed control effect, Chenopodiaceae (activity level) (Chenopodiaceae; Dose 3000 g/ha): 10
weed control effect, Rorippa indica (activity level) (Rorippa indica; Dose 3000 g/ha): 10

Cc1cnn(C)c1-c1nnc(C(F)(F)F)cc1O [Compound 808]
weed control effect (activity level), Amaranthus retroflexus (Amaranthus retroflexus; Dose 3000 g/ha): 10
weed control effect (activity level), Veronica polita (Veronica polita; Dose 3000 g/ha): 10
weed control effect (activity level), Chenopodiaceae (Chenopodiaceae; Dose 3000 g/ha): 10
weed control effect (activity level), Rorippa indica (Rorippa indica; Dose 3000 g/ha): 10

Cn1cccc1C(=O)Oc1cc(C(F)(F)F)nnc1-c1ccccc1 [Compound 1-105]
weed control effect, Amaranthus retroflexus (activity level) (Amaranthus retroflexus; Dose 3000 g/ha): 10
weed control effect, Veronica polita (activity level) (Veronica polita; Dose 3000 g/ha): 10
weed control effect, Chenopodiaceae (activity level) (Chenopodiaceae; Dose 3000 g/ha): 10
weed control effect, Rorippa indica (activity level) (Rorippa indica; Dose 3000 g/ha): 10

Oc1cc(C(F)(F)F)nnc1-c1ccnn1-c1ccccc1 [Compound 832]
weed control effect (activity level), Amaranthus retroflexus (Amaranthus retroflexus; Dose 3000 g/ha): 10
weed control effect (activity level), Veronica polita (Veronica polita; Dose 3000 g/ha): 10
weed control effect (activity level), Chenopodiaceae (Chenopodiaceae; Dose 3000 g/ha): 10
weed control effect (activity level), Rorippa indica (Rorippa indica; Dose 3000 g/ha): 10

Cn1cc(S(=O)(=O)Oc2cc(C(F)(F)F)nnc2-c2cccc(F)c2)cn1 [Compound 1-151]
weed control effect, Amaranthus retroflexus (activity level) (Amaranthus retroflexus; Dose 3000 g/ha): 10
weed control effect, Veronica polita (activity level) (Veronica polita; Dose 3000 g/ha): 10
weed control effect, Chenopodiaceae (activity level) (Chenopodiaceae; Dose 3000 g/ha): 10
weed control effect, Rorippa indica (activity level) (Rorippa indica; Dose 3000 g/ha): 10

Cn1cc(-c2nnc(C(F)(F)F)cc2O)cn1 [Compound 839]
weed control effect (activity level), Amaranthus retroflexus (Amaranthus retroflexus; Dose 3000 g/ha): 10
weed control effect (activity level), Veronica polita (Veronica polita; Dose 3000 g/ha): 10
weed control effect (activity level), Chenopodiaceae (Chenopodiaceae; Dose 3000 g/ha): 10
weed control effect (activity level), Rorippa indica (Rorippa indica; Dose 3000 g/ha): 10
